{"source": "patent US20080014585A1", "about": "“SYNERGISTIC ACTIVATION OF REGULATORY ELEMENTS BY REL PROTEINS AND A STEROID RECEPTOR” (N.V. Organon, priority 2000, published 2008)", "key": {"human ERα": {"target": "T1, human ERα (Homo sapiens, UniProt P03372)", "T1 construct": "expressed in transfected cells; host or cells: COS-1 (monkey)", "T1 sequence (P03372 1-595)": "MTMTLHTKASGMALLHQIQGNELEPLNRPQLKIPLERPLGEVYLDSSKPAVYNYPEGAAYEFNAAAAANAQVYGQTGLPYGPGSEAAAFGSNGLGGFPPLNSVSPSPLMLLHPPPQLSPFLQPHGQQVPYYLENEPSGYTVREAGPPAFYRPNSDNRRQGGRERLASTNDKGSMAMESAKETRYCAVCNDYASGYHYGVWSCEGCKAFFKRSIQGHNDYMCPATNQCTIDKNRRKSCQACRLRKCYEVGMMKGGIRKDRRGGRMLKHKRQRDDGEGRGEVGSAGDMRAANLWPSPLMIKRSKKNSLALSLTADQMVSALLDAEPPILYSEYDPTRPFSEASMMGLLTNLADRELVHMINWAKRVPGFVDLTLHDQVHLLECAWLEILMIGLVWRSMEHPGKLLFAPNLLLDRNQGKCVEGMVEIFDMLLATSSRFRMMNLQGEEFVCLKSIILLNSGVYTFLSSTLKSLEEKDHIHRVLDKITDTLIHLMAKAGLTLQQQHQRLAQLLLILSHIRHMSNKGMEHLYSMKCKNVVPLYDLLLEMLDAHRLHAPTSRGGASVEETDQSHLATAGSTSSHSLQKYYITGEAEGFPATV", "test": "5-HT1A receptor promoter (-901luc) luciferase reporter, COS-1 cells cotransfected with NF-κB (p50, p65) and ERα", "type": "cell-based", "text": "Depicted is the induction of luciferase activity evoked by NF-κB over cells transfected with empty expression vector. Bars represent the mean of at least three independent experiments ±S.D. (B) COS-1 cells were transiently transfected with 4×NF-κ B(HIV)tkluc in combination with empty expression vector or expression vectors encoding the p50 and p65 subunits of NF-κB and expression vectors encoding ERα or ERβ. Cells were either untreated (white bars) or treated with 10^−8 M E2 (black bars) for 24 h. Depicted is the induction of luciferase activity evoked by NF-κB over cells transfected with empty expression vector. Bars represent the mean of at least three independent experiments ±S.D.\n(A) COS-1 cells were transiently transfected with the −901luc reporter construct together with empty expression vector or expression vectors encoding the p50 and p65 subunits of NF-κB in combination with expression vectors encoding ERα and treated with E2, OH-T or ICI for 24 h as indicated. Depicted is the induction of luciferase activity evoked by NF-κB over cells transfected with empty expression vector. Bars represent the mean of at least three independent experiments ±S.D. FIG. 4. […] Depicted is the induction of luciferase activity evoked by the NF-κB subunits over cells transfected with empty expression vector. Bars represent the mean of at least three independent experiments ±S.D.\nCell Culture. […]"}, "classical ERE": {"system": "classical ERE", "details": "transactivation experiments, reference 22; cited from earlier work"}, "ERα": {"target": "ERα (Homo sapiens, UniProt P03372)", "details": "cited from earlier work"}}, "note": "Entries after “also recorded” stand apart in the source; their conditions may differ.", "data": [{"substance": "4-hydroxytamoxifen", "values": [{"measurement": "enhancement of 5-HT1A receptor promoter activity by ERα and NF-κB", "setting": "human ERα", "result": "further induced; also recorded: as potent as E2"}, {"measurement": "transcription of genes regulated by a classical ERE", "setting": "classical ERE", "result": "inhibited transcription"}, {"measurement": "transcription of genes under the control of an AP-1 element with ERα", "setting": "ERα", "result": "activated"}]}]}
